Data on one molecule can be found in patent US20120264603A1, “ATTACHMENT AND RETENTION FORMULATIONS FOR BIOLOGICALLY ACTIVE ORGANIC COMPOUNDS” (priority 2010, published 2012).

The series in a line: Water solubility of sulfentrazone as a function of pH. The format is physicochemical.

Turning to `Cc1nn(-c2cc(NS(C)(=O)=O)c(Cl)cc2Cl)c(=O)n1C(F)F` [sulfentrazone], the solubility in water entry is “soluble in water” (at 7.5 pH) and “sparingly soluble in water” (pH ~5).
